Tested on: P388
Assay: Cytotoxicity against mouse P388 cells
Format: functional
Details: read-out: ID50 (the source's name)

SMILES	IC50 [µg/mL]
CC(C)CCCCCC(O)C#CC#C/C=C\OCC(O)CO (configuration not stated)	> 6
CCCCCCCCCC(O)C#CC#C/C=C\OCC(O)CO (configuration not stated)	> 11

From ChEMBL document CHEMBL1158908, “Diyne Enol Ethers of Glycerol from a New Zealand Sponge, Petrosia hebes” (1990)
